# Activity calls are given as the source filed them. The calls are words filed in the database; no cut-off is given here.
# Tests used:
# NIH3T3 [1] = assay: Anti-fibrotic activity in mouse NIH3T3 cells assessed as inhibition of TGFbeta-induced total collagen production at 10 uM measured after 48 hrs by Sirius Red Collagen Detection Kit relative to control; format: functional
# [2] = Cytotoxicity against mouse NIH3T3 cells assessed as survival rate at 10 uM measured after 24 hrs by CCK-8 assay relative to control; format: toxicity, cell-based; conditions: read-out: Survival
# NIH3T3 [3] = assay: Inhibition of TGFbeta1-induced proliferation of mouse NIH3T3 cells assessed as colony formation at 10 uM measured after 7 to 14 days by Crystal violet staining based assay; format: functional, cell-based; conditions: time 7-14 day
# L929 = assay: Anti-migratory activity in mouse L929 cells assessed as inhibition of TGFbeta1-induced migration at 10 uM measured after 24 hrs by Wound healing assay; format: functional, cell-based
# NIH3T3 [4] = assay: Anti-fibrotic activity in mouse NIH3T3 cells assessed as inhibition of TGFbeta-induced total collagen production measured after 48 hrs by Sirius Red Collagen Detection Kit relative to control; format: functional, cell-based; conditions: NIH3T3, 48 h
# NIH3T3 [5] = assay: Antifibrotic activity in mouse NIH3T3 cells assessed as decrease in TRPV1 expression measured after 48 hrs incubation by Western blotting analysis; format: functional, cell-based; conditions: dose 1-10 µM
# NIH3T3 [6] = assay: Antifibrotic activity in mouse NIH3T3 cells assessed as decrease in TGFbeta-induced alpha-SMA expression measured after 48 hrs incubation by Western blotting analysis; format: functional, cell-based; conditions: dose 1-10 µM
# [7] = molecular target: Transient receptor potential cation channel subfamily V member 1 (Homo sapiens) (UniProt Q8NER1); assay: Inhibition of TRPV1 (unknown origin) overexpressed in si-TRPV1-2 transfected HEK-293T cells assessed as decrease in TGFbeta-induced alpha-SMA expression at 10 uM measured after 48 hrs incubation by Western blotting analysis; format: cell-based
# NIH3T3 [8] = assay: Inhibition of TGFbeta-induced ERK1/2 phosphorylation in mouse NIH3T3 cells at 1 to 10 uM by Western blot analysis; format: functional, cell-based; conditions: dose 1-10 µM
# NIH3T3 [9] = assay: Inhibition of TGFbeta-induced JNK phosphorylation in mouse NIH3T3 cells at 1 to 10 uM by Western blot analysis; format: functional, cell-based; conditions: dose 1-10 µM
# [10] = Acute toxicity in Kunming female mouse assessed as Total bilirubin (T-Bil) level at 180 mg/kg, ip measured after 14 days (reference value: 10.79 micromol/L); format: organism-based; conditions: in vivo, 336 h, time 14 day
# [11] = Acute toxicity in Kunming female mouse assessed as Direct bilirubin (D-Bil) level at 180 mg/kg, ip measured after 14 days (reference value: 3.37 micromol/L); format: organism-based; conditions: in vivo, 336 h, time 14 day
# [12] = Acute toxicity in Kunming female mouse assessed as Creatinine (CREA) level at 180 mg/kg, ip measured after 14 days (reference value: 15.4 micromol/L); format: organism-based; conditions: in vivo, 336 h, time 14 day
# [13] = Acute toxicity in Kunming female mouse assessed as Lactate dehydrogenase (LDH) level at 180 mg/kg, ip measured after 14 days (reference value: 1952.7 U/L); format: organism-based; conditions: in vivo, 336 h, time 14 day
# [14] = Acute toxicity in Kunming female mouse assessed as Creatine kinase (CK) level at 180 mg/kg, ip measured after 14 days (reference value: 779.7 U/L); format: organism-based; conditions: in vivo, 336 h, time 14 day
# [15] = Acute toxicity in Kunming male mouse assessed as Aspartate aminotransferase (AST) level at 180 mg/kg, ip measured after 14 days (reference value: 116.7 U/L); format: organism-based; conditions: in vivo, 336 h, time 14 day
# [16] = Acute toxicity in Kunming male mouse assessed as Urea level at 180 mg/kg, ip measured after 14 days (reference value: 6.54 mmol/L); format: organism-based; conditions: in vivo, 336 h, time 14 day
# [17] = Acute toxicity in Kunming male mouse assessed as Creatinine (CREA) level at 180 mg/kg, ip measured after 14 days (reference value: 12.4 micromol/L); format: organism-based; conditions: in vivo, 336 h, time 14 day
# [18] = Acute toxicity in Kunming mouse assessed as organ lesions in heart at 180 mg/kg, ip measured after 14 days by H and E staining based assay; format: organism-based; conditions: in vivo, 336 h, time 14 day
# [19] = Acute toxicity in Kunming mouse assessed as organ lesions in liver at 180 mg/kg, ip measured after 14 days by H and E staining based assay; format: organism-based; conditions: in vivo, 336 h, time 14 day
# [20] = MRT(0 to infinity) in Sprague-Dawley rat at 50 mg/kg, ip measured upto 4 hrs by UPLC-MS/MS analysis; format: ADME, organism-based; conditions: in vivo
# [21] = VRT(0 to t) in Sprague-Dawley rat at 50 mg/kg, ip measured upto 4 hrs by UPLC-MS/MS analysis; format: ADME, organism-based; conditions: in vivo
# [22] = Half life in Sprague-Dawley rat at 50 mg/kg, ip measured upto 4 hrs by UPLC-MS/MS analysis; format: ADME, organism-based; conditions: in vivo
# [23] = Clearance in Sprague-Dawley rat at 50 mg/kg, ip measured upto 4 hrs by UPLC-MS/MS analysis; format: ADME, organism-based; conditions: in vivo
# [24] = Cmax in Sprague-Dawley rat at 50 mg/kg, ip measured upto 4 hrs by UPLC-MS/MS analysis; format: ADME, organism-based; conditions: in vivo
# [25] = Bioavailability in Sprague-Dawley rat at 50 mg/kg, ip measured upto 4 hrs by UPLC-MS/MS analysis; format: ADME, organism-based; conditions: in vivo
# [26] = MRT(0 to infinity) in Sprague-Dawley rat at 50 mg/kg, iv measured upto 4 hrs by UPLC-MS/MS analysis; format: ADME, organism-based; conditions: in vivo
# [27] = Apparent volume of distribution in Sprague-Dawley rat at 50 mg/kg, iv measured upto 4 hrs by UPLC-MS/MS analysis; format: ADME, organism-based; conditions: in vivo, read-out: Vz
# Mus musculus [28] = assay: Anti-fibrotic activity against bleomycin-induced pulmonary fibrosis mouse model assessed as increase in forced vital capacity (FVC) at 10 to 20 mg/kg, ip administered every alternative day for 8 to 21 days after modeling; format: functional, organism-based; conditions: dose 10-20 mg/kg, time 8-21 day
# Mus musculus [29] = assay: Anti-fibrotic activity against bleomycin-induced pulmonary fibrosis mouse model assessed as increase in lung compliance at 10 to 20 mg/kg, ip administered every alternative day for 8 to 21 days after modeling; format: functional, organism-based; conditions: dose 10-20 mg/kg, time 8-21 day
# Mus musculus [30] = assay: Anti-pulmonary fibrotic activity against bleomycin-induced pulmonary fibrosis mouse model assessed as inhibition of collagen I expression in lung tissue at 10 to 20 mg/kg, ip administered every alternative day for 8 to 21 days after modeling by immunohistochemical staining based assay; format: functional, organism-based; conditions: dose 10-20 mg/kg, time 8-21 day
# Mus musculus [31] = assay: Anti-pulmonary fibrotic activity against bleomycin-induced pulmonary fibrosis mouse model assessed as inhibition of Smad3 phosphorylation in lung tissue at 10 to 20 mg/kg, ip administered every alternative day for 8 to 21 days after modeling by immunohistochemical staining based assay; format: functional, organism-based; conditions: dose 10-20 mg/kg, time 8-21 day
# [32] = AUC(0 to t) in Sprague-Dawley rat at 50 mg/kg, po measured upto 4 hrs by UPLC-MS/MS analysis; format: ADME, organism-based; conditions: in vivo
# [33] = AUC(0 to infinity) in Sprague-Dawley rat at 50 mg/kg, po measured upto 4 hrs by UPLC-MS/MS analysis; format: ADME, organism-based; conditions: in vivo
# [34] = AUMC(0 to t) in Sprague-Dawley rat at 50 mg/kg, po measured upto 4 hrs by UPLC-MS/MS analysis; format: ADME, organism-based; conditions: in vivo
# [35] = AUMC(0 to t) in Sprague-Dawley rat at 50 mg/kg, ip measured upto 4 hrs by UPLC-MS/MS analysis; format: ADME, organism-based; conditions: in vivo
# [36] = AUC(0 to t) in Sprague-Dawley rat at 50 mg/kg, iv measured upto 4 hrs by UPLC-MS/MS analysis; format: ADME, organism-based; conditions: in vivo
# Sequence of Transient receptor potential cation channel subfamily V member 1 (Homo sapiens) (Q8NER1 whole entry): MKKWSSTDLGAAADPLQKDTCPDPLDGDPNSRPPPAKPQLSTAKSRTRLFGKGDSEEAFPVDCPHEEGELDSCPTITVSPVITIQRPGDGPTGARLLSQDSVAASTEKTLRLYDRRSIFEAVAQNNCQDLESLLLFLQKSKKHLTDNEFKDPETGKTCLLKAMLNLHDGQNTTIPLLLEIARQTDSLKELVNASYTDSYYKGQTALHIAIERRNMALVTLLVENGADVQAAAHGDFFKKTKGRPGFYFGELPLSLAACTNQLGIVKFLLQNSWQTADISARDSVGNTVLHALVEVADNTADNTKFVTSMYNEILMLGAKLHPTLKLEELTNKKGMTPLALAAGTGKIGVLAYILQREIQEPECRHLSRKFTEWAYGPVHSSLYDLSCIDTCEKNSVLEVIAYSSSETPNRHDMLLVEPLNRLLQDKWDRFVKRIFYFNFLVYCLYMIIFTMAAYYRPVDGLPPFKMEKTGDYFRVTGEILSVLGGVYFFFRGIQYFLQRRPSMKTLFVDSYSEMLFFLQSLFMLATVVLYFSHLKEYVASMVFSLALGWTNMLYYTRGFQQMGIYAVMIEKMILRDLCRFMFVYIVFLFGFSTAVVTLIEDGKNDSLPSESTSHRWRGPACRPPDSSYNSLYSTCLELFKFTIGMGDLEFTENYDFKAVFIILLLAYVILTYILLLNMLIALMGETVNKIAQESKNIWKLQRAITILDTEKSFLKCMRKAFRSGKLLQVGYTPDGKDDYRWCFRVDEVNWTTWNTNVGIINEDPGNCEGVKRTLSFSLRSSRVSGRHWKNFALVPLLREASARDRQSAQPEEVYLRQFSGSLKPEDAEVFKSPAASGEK
structure (smiles),measurement,setting,value
O=C(/C=C/c1ccc(O)c(O)c1)CCCCc1ccccc1,inhibition at 10 µM,NIH3T3 [1],80.7%
same,"viability at 24 h, 10 µM",[2],99.2%
same,inhibition,NIH3T3 [3],Active
same,Activity,L929,Active
same,IC50,NIH3T3 [4],510 nM
same,Activity,NIH3T3 [5],Dose-dependent-effect; Compound More Potent Than Nintedanib
same,Activity,NIH3T3 [6],Dose-dependent-effect; Compound More Potent Than Nintedanib
same,inhibition,[7],inactive
same,inhibition,NIH3T3 [8],Active
same,inhibition,NIH3T3 [9],Active
same,Activity,[10],18.82 µmol/L
same,Activity,[11],1.02 µmol/L
same,Activity,[12],16.7 µmol/L
same,Activity,[13],2798.2 U/L
same,Activity,[14],1115.7 U/L
same,Activity,[15],125.2 U/L
same,Activity,[16],9.56 mmol/L
same,Activity,[17],15.3 µmol/L
same,Activity,[18],Non-toxic
same,Activity,[19],Non-toxic
same,MRT inf,[20],34.2 min
same,VRT(t),[21],0.53 hr2
same,half-life,[22],21 min
same,CL,[23],305.45 mL/min/kg
same,Cmax,[24],1490 ng/mL
same,bioavailability,[25],29.6%
same,MRT inf,[26],47.6 min
same,Vd,[27],7.17 L/kg
same,Activity,Mus musculus [28],Active
same,Activity,Mus musculus [29],Active
same,Activity,Mus musculus [30],Active
same,Activity,Mus musculus [31],Active
same,AUC(0-t) at 4 h,[32],99 ng·h/mL
same,AUC,[33],102.37 ng·h/mL
same,AUMCt,[34],121.11 ug/L.hr
same,AUMCt,[35],568.11 ug/L.hr
same,AUC(0-t) at 4 h,[36],2640 ng·h/mL

# Source: ChEMBL document CHEMBL6096723, “Discovery of novel capsaicin analogs as TRPV1 inhibitors for the treatment of idiopathic pulmonary fibrosis” (Eur J Med Chem, 2025)
